Laboratory results: PMC8092108, “Mycophenolate suppresses inflammation by inhibiting prostaglandin synthases: a study of molecular and experimental drug repurposing” (PeerJ, 2021)
Several values for one entry are separate records, joined by “and”; a condition that tells them apart may be missing. Identical values can stand only once. Like-named read-outs stand apart in the source and are kept apart here.

Tests used:
[1] = tested on: carrageenan-induced paw edema; assay: Carrageenan-induced rat paw edema test; type: in vivo; settings: for Rat paw edema after treatment: MMF 12.5–50 mg/kg, indomethacin or celecoxib 10 mg/kg oral; for Rat paw size: individual rats 1-7
Protocol: The in vivo assay was performed by the rat paw edema inhibition test as previously described ([Morris, 2003]; [Winter, Risley & Nuss, 1962]). Forty-nine male adult albino rats weighing […] were obtained from the Animal Breeding Center at the College of Veterinary Medicine, King Faisal University, and were randomly divided into seven groups (n = 7/group). The animal groups included the nontreated control group, carrageenan group, and five groups receiving carrageenan and treated with either indomethacin, celecoxib, or MMF at three doses (12.5, 25, and 50 mg/kg). All rats were allowed free access to food and water. All cages were kept in controlled rooms at 25 °C and exposed to a 12-h light/dark cycle. MMF and two reference drugs, indomethacin and celecoxib, were suspended in 1% NaCMC in normal saline. A 1% carrageenan solution in normal saline was injected into the subplantar area of the right hind paw of rats. One hour before injection of carrageenan, rats were given either indomethacin or celecoxib at a dose rate of 10 mg/kg or MMF at three dose levels of 12.5, 25, and 50 mg/kg by oral administration. […] The measurements were blind to avoid measurement bias. The King Faisal University Ethics Committee (approval no. KFU-REC/2020-10-11) approved all animal experiments. Since no samples were taken from rats, there were no anesthesia procedures. The size of the hind paw was only measured in non-anesthetized rats. At the end of the experiment, all rats were euthanized according to the regulations of the King Faisal University Ethics Committee by an overdose of pentobarbital (200 mg/kg IP) and decapitation. The effect of MMF at different doses on relieving rat paw edema was compared with the control and standard NSAID-treated groups. Significant differences were determined by one-way analysis of variance (ANOVA) with Tukey’s post hoc test. All steps were implemented using GraphPad prism software (GraphPad Software, La Jolla, CA, USA).

12-LOX = assay: LOX inhibitor screening kit; type: biochemical
Protocol: The inhibitory effects of the drugs MMF and MPA on COX-1 and COX-2 were measured using the COX inhibitor screening assay kit and LOX inhibitor screening kit. The assay was performed according to the manufacturer’s directions and previously described methods ([Chowdhury et al., 2008]; [Lee et al., 2004]). Briefly, the reaction buffer (Tris–HCl buffer, pH 8.0) containing 5 mM EDTA, 2 mM phenol, and 1 µM hematin was measured into test tubes. The test drugs were dissolved in dimethyl sulfoxide and added to the tubes to final concentrations of […]. COX-1 or COX-2 was added to the test tubes and preincubated for 10 min at 37 °C. Arachidonic acid was then added, and the tubes were incubated for 2 min at 37 °C. The enzyme immunoassay was used to measure the concentration of the product prostaglandin F2α (PGF2α). The estimated values were determined after comparison to the predetermined standard curve. The IC50 was determined after three different experiments. The selectivity index was calculated from Eq. (1): […]

COX-1 = target: T1, COX-1 (Ovis aries, UniProt P05979); assay: COX inhibitor screening assay, COX-1; type: biochemical
T1 construct: purchased
T1 sequence (P05979 25-600): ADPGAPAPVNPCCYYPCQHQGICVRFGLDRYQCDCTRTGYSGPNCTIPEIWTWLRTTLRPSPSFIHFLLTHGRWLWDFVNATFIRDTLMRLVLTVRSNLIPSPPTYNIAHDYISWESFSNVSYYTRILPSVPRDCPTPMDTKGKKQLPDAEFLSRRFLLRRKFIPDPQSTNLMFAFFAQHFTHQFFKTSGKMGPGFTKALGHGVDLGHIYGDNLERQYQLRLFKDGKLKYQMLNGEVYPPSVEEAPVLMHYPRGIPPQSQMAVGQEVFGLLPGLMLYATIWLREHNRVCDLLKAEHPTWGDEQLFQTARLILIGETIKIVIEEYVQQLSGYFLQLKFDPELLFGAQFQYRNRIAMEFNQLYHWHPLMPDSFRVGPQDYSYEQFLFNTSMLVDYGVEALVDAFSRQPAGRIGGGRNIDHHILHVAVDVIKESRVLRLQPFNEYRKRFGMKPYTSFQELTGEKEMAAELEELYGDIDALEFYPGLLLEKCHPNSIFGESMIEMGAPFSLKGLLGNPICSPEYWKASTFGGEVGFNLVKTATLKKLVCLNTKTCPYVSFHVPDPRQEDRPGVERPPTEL
Protocol: (§1) The inhibitory effects of the drugs MMF and MPA on COX-1 and COX-2 were measured using the COX inhibitor screening assay kit and LOX inhibitor screening kit. […] Briefly, the reaction buffer (Tris–HCl buffer, pH 8.0) containing 5 mM EDTA, 2 mM phenol, and 1 µM hematin was measured into test tubes. The test drugs were dissolved in dimethyl sulfoxide and added to the tubes to final concentrations of […]. COX-1 or COX-2 was added to the test tubes and preincubated for 10 min at 37 °C. Arachidonic acid was then added, and the tubes were incubated for 2 min at 37 °C. The enzyme immunoassay was used to measure the concentration of the product prostaglandin F2α (PGF2α). The estimated values were determined after comparison to the predetermined standard curve. The IC50 was determined after three different experiments. The selectivity index was calculated from Eq. (1):
(§2) (1) Selectivity index=IC50COX−1/IC50COX−2

[2] = cited from earlier work
COX-2 = target: T2, COX-2 (Homo sapiens, UniProt P35354); assay: COX inhibitor screening assay, COX-2; type: biochemical
T2 construct: purchased
T2 sequence (P35354 18-604): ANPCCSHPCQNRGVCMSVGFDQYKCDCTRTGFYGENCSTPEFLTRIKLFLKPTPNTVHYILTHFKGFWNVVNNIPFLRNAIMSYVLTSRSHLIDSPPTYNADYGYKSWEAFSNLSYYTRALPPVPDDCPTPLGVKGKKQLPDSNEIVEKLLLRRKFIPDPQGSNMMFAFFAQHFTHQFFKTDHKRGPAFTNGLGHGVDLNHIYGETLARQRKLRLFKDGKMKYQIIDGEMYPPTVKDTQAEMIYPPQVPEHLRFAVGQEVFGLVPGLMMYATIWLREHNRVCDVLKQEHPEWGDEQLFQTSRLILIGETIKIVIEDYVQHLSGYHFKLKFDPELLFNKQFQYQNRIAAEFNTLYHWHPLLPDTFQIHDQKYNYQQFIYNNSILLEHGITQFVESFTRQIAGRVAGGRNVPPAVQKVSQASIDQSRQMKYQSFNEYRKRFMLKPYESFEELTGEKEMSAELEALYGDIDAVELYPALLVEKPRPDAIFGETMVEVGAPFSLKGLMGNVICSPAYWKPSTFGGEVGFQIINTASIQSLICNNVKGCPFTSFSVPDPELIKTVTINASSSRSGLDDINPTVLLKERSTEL
Protocol: as §1, §2

Cc1ccc(-c2cc(C(F)(F)F)nn2-c2ccc(S(N)(=O)=O)cc2)cc1 [Celecoxib, celecoxib]
Rat paw edema after treatment [1]: significantly relieved | Rat paw size ([1]; celecoxib 10 mg/kg oral, Time (h) 1): 0.75 cm (4×) and 0.71 cm and 0.7 cm and 0.73 cm | Rat paw size ([1]; celecoxib 10 mg/kg oral, Time (h) 2): 0.75 cm and 0.65 cm (2×) and 0.7 cm and 0.67 cm and 0.68 cm and 0.6 cm | Rat paw size ([1]; celecoxib 10 mg/kg oral, Time (h) 3): 0.55 cm and 0.45 cm and 0.5 cm (3×) and 0.49 cm and 0.4 cm | Rat paw size ([1]; celecoxib 10 mg/kg oral, Time (h) 4): 0.5 cm (2×) and 0.48 cm and 0.45 cm (3×) and 0.4 cm | Rat paw size ([1]; celecoxib 10 mg/kg oral, Time (h) 5): 0.4 cm (3×) and 0.45 cm and 0.43 cm and 0.38 cm and 0.42 cm | Rat paw size ([1]; celecoxib 10 mg/kg oral, Time (h) 6): 0.6 cm (2×) and 0.56 cm and 0.55 cm (2×) and 0.65 cm and 0.5 cm

O=c1c(O)c(-c2ccc(O)c(O)c2)oc2cc(O)cc(O)c12 [Quercetin]
IC50 (12-LOX; read-out: IC50 12-LOX): 3.33 µM

COc1ccc2c(c1)c(CC(=O)O)c(C)n2C(=O)c1ccc(Cl)cc1 [Indomethacin, indomethacin]
Rat paw edema after treatment [1]: significantly relieved | Rat paw size ([1]; indomethacin 10 mg/kg oral, Time (h) 1): 0.7 cm (4×) and 0.75 cm (3×) | Rat paw size ([1]; indomethacin 10 mg/kg oral, Time (h) 2): 0.7 cm and 0.6 cm (3×) and 0.55 cm (2×) and 0.5 cm | Rat paw size ([1]; indomethacin 10 mg/kg oral, Time (h) 3): 0.45 cm and 0.43 cm and 0.4 cm (2×) and 0.42 cm and 0.5 cm and 0.44 cm | Rat paw size ([1]; indomethacin 10 mg/kg oral, Time (h) 4): 0.35 cm and 0.38 cm and 0.4 cm (3×) and 0.39 cm and 0.37 cm | Rat paw size ([1]; indomethacin 10 mg/kg oral, Time (h) 5): 0.35 cm (2×) and 0.37 cm (3×) and 0.4 cm (2×) | Rat paw size ([1]; indomethacin 10 mg/kg oral, Time (h) 6): 0.55 cm and 0.52 cm and 0.5 cm and 0.65 cm and 0.6 cm (2×) and 0.59 cm

COc1c(C)c2c(c(O)c1C/C=C(\C)CCC(=O)O)C(=O)OC2 [Mycophenolic acid, mycophenolic acid]
IC50 (COX-1): 4.62 µM | IC50 (12-LOX; printed as 5-LOX in abstract and b38, read-out: IC50 5-LOX): 4.49 µM | IC50 (12-LOX; read-out: IC50 12-LOX): 4.49 µM | Time to maximum serum MPA concentration ([2]; after MMF administration, ref Park, 2011): 60 to 90 min | Clinically attainable MPA concentration ([2]; ref Margolis et al., 1999): 1 to 10 µM | IC50 (COX-2): 0.14 µM | Selectivity index (COX-2; IC50 COX-1/IC50 COX-2): 33.00
